# Legend:
# velvetleaf = test: Test B pre/postemergence velvetleaf; assay type: in vivo, Abutilon theophrasti; settings: for Velvetleaf plant response rating (0 to 10 scale): 0 is no effect
# In short: (§1)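 Response is a visual 0-to-10 score relative to untreated plants, where 0 means no effect and 10 means complete control, taken twelve to sixteen days after application. Treatments went onto soil at planting and onto foliage of 1- to 4-leaf plants, using a surfactant-containing non-phytotoxic solvent.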
# blackgrass [1] = test: Test E blackgrass; assay type: in vivo, Alopecurus myosuroides; settings: Preemergence
# Johnson grass = test: Test D Johnson grass; assay type: in vivo, Sorghum halepense; settings: Preemergence, 0 to 100 scale
# In short: (§2)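 Greenhouse pots, sandy loam, single species per pot. Preemergence tests: soil-surface application ≤1 day after planting. Compound formulated in non-phytotoxic solvent with surfactant. Visual rating 14–21 DAT, scale 0–100.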
# purple nutsedge = test: Test D purple nutsedge; assay type: in vivo, Cyperus rotundus; settings: Preemergence, 0 to 100 scale
# In short: as §2
# soybean = test: Test B pre/postemergence soybean; assay type: in vivo, Glycine max
# In short: as §1
# blackgrass [2] = test: Test B pre/postemergence blackgrass; assay type: in vivo, Alopecurus myosuroides
# In short: as §1
# winter wheat [3] = test: Test E winter wheat; assay type: in vivo, Triticum aestivum; settings: Postemergence
# In short: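 Greenhouse test: compounds in non-phytotoxic solvent with surfactant; for postemergence, sprayed on plants at 1- to 4-leaf stage grown in 60:40 sandy loam/potting mix. Injury rated visually against untreated controls after about 21 to 28 days.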
# bedstraw = test: Test B pre/postemergence bedstraw; assay type: in vivo, Galium aparine
# In short: as §1
# green foxtail = test: Test E green foxtail; assay type: in vivo, Setaria viridis; settings: Preemergence
# wild oat = test: Test E wild oat; assay type: in vivo, Avena fatua; settings: Preemergence
# Alexandergrass = test: Test D Alexandergrass; assay type: in vivo, Brachiaria plantaginea; settings: Preemergence, 0 to 100 scale
# In short: as §2
# winter barley = test: Test E winter barley; assay type: in vivo, Hordeum vulgare; settings: Preemergence
# winter wheat [4] = test: Test E winter wheat; assay type: in vivo, Triticum aestivum; settings: Preemergence
# Italian ryegrass = test: Test E Italian ryegrass; assay type: in vivo, Lolium multiflorum; settings: Preemergence
# [5] = Postemergence, Rate 125 g/ha, scale of 0 to 10 where 0 is no effect and 10 is complete control
# [6] = Preemergence, Rate 62 g/ha, scale 0 to 10 (0 no effect, 10 complete control)
# [7] = Preemergence, Rate 125 g/ha, 10 is complete control
# [8] = Preemergence, Rate 250 g/ha, scale 0 to 10, 0 is no effect, 10 is complete control
# [9] = Preemergence, Rate 500 g/ha, scale 0 to 10 (0 no effect, 10 complete control)
# [10] = Rate 62 g/ha, Postemergence, scale of 0 to 10 where 0 is no effect and 10 is complete control
# [11] = Rate 250 g/ha, Postemergence, scale 0 to 10, 0 is no effect, 10 is complete control
# [12] = Rate 500 g/ha, Postemergence, scale 0 to 10
# [13] = Rate 62 g/ha, 0 to 100 scale, 0 no effect, 100 complete control
# [14] = Rate 125 g/ha, 0 to 100 scale (0 no effect, 100 complete control)
# [15] = Rate 64 g/ha, 0 no injury, 100 complete control
# [16] = Rate 125 g/ha, 0 no injury, 100 complete control
# [17] = Preemergence, Rate 125 g/ha, 0 is no effect, 10 is complete control
# [18] = Rate 500 g/ha, Postemergence, scale 0 to 10, 0 no effect, 10 complete control
# [19] = Preemergence, Rate 250 g/ha, scale of 0 to 10 where 0 is no effect and 10 is complete control
# [20] = Rate 16 g/ha, 0 no injury, 100 complete control
# [21] = Rate 32 g/ha, 0 no injury, 100 complete control
# [22] = Preemergence, Rate 125 g/ha, scale 0 to 10 (0 no effect, 10 complete control)
# [23] = Postemergence, Rate 250 g/ha, scale 0 to 10, 0 no effect, 10 complete control
structure (smiles),measurement,setting,value
CC(C)N(C(=O)n1oc(=O)n(C)c1=O)c1ccc(F)cc1 [Compound 138],Velvetleaf plant response rating,velvetleaf; [5],4
same,Velvetleaf plant response rating,velvetleaf; [6],5
same,Velvetleaf plant response rating (0 to 10 scale),velvetleaf; [7],8
same,Velvetleaf plant response rating,velvetleaf; [8],10
same,Velvetleaf plant response rating,velvetleaf; [9],10
same,Velvetleaf plant response rating,velvetleaf; [10],2
same,"Plant response rating, Velvetleaf",velvetleaf; [11],4
same,Velvetleaf plant response rating,velvetleaf; [12],7
same,"Plant response rating, Blackgrass",blackgrass [1]; [13],50
same,"Plant response rating, Blackgrass",blackgrass [1]; [14],60
same,Blackgrass plant response rating (0 to 100 scale),blackgrass [1]; Rate 250 g/ha,70
same,"Plant response rating, Johnsongrass",Johnson grass; [15],40
same,"Plant response rating, Johnsongrass",Johnson grass; [16],65
same,"Plant response rating, Johnsongrass",Johnson grass; Rate 250 g/ha,100
same,"Plant response rating, Johnsongrass",Johnson grass; Rate 500 g/ha,100
same,Purple nutsedge plant response rating,purple nutsedge; [15],30
same,Purple nutsedge plant response rating,purple nutsedge; [16],65
same,"Plant response rating, Purple nutsedge",purple nutsedge; Rate 250 g/ha,75
same,"Plant response rating, Purple nutsedge",purple nutsedge; Rate 500 g/ha,80
same,Soybean plant response rating,soybean; [5],3
same,Soybean plant response rating,soybean; [6],0
same,Soybean plant response rating (0 to 10 scale),soybean; [17],4
same,Soybean plant response rating,soybean; [8],5
same,Soybean plant response rating,soybean; [9],8
same,Soybean plant response rating,soybean; [10],2
same,"Plant response rating, Soybean",soybean; [11],4
same,Soybean plant response rating,soybean; [12],4
same,Blackgrass plant response rating,blackgrass [2]; [5],9
same,Blackgrass plant response rating,blackgrass [2]; [6],9
same,Blackgrass plant response rating (0 to 10 scale),blackgrass [2]; [17],9
same,Blackgrass plant response rating,blackgrass [2]; [8],9
same,Blackgrass plant response rating,blackgrass [2]; [9],9
same,Blackgrass plant response rating,blackgrass [2]; [10],7
same,"Plant response rating, Blackgrass",blackgrass [2]; [11],9
same,Blackgrass plant response rating,blackgrass [2]; [12],9
same,"Plant response rating, Wheat (winter)","winter wheat [3]; Rate 62 g/ha, 0 to 100 scale",60
same,"Plant response rating, Wheat (winter)","winter wheat [3]; Rate 125 g/ha, 0 to 100 scale",70
same,Wheat (winter) plant response rating,"winter wheat [3]; Rate 250 g/ha, 0 to 100 scale where 0 is no effect and 100 is complete control",80
same,Bedstraw plant response rating,bedstraw; [5],7
same,Bedstraw plant response rating,bedstraw; [6],5
same,Bedstraw plant response rating (0 to 10 scale),bedstraw; [17],7
same,Bedstraw plant response rating,bedstraw; [8],10
same,Bedstraw plant response rating,bedstraw; [9],10
same,Bedstraw plant response rating,bedstraw; [10],2
same,"Plant response rating, Bedstraw",bedstraw; [11],8
same,Bedstraw plant response rating,bedstraw; [18],9
same,"Plant response rating, Green foxtail",green foxtail; [13],60
same,"Plant response rating, Green foxtail",green foxtail; [14],70
same,Green foxtail plant response rating (0 to 100 scale),green foxtail; Rate 250 g/ha,75
same,"Plant response rating, Wild oat",wild oat; [13],50
same,"Plant response rating, Wild oat",wild oat; [14],60
same,Wild oat plant response rating (0 to 100 scale),wild oat; Rate 250 g/ha,65
same,"Plant response rating, Alexandergrass",Alexandergrass; [15],80
same,"Plant response rating, Alexandergrass",Alexandergrass; [16],80
same,"Plant response rating, Alexandergrass",Alexandergrass; Rate 250 g/ha,98
same,"Plant response rating, Alexandergrass",Alexandergrass; Rate 500 g/ha,100
same,"Plant response rating, Barley (winter)",winter barley; [13],30
same,"Plant response rating, Barley (winter)",winter barley; [14],60
same,Barley (winter) plant response rating (0 to 100 scale),winter barley; Rate 250 g/ha,90
same,"Plant response rating, Wheat (winter)",winter wheat [4]; [13],60
same,"Plant response rating, Wheat (winter)",winter wheat [4]; [14],70
same,Wheat (winter) plant response rating (0 to 100 scale),winter wheat [4]; Rate 250 g/ha,80
same,"Plant response rating, I. Ryegrass",Italian ryegrass; [13],60
same,"Plant response rating, I. Ryegrass",Italian ryegrass; [14],70
same,I. Ryegrass plant response rating (0 to 100 scale),Italian ryegrass; Rate 250 g/ha,80
CC(C)N(C(=O)n1oc(=O)n(C2CCCCC2)c1=O)c1ccccc1 [Compound 112],Velvetleaf plant response rating,velvetleaf; [5],0
same,Velvetleaf plant response rating,velvetleaf; [6],0
same,Velvetleaf plant response rating (0 to 10 scale),velvetleaf; [7],2
same,"Plant response rating, Velvetleaf",velvetleaf; [19],4
same,Velvetleaf plant response rating,velvetleaf; [9],5
same,Velvetleaf plant response rating,velvetleaf; [10],0
same,"Plant response rating, Velvetleaf",velvetleaf; [11],1
same,Velvetleaf plant response rating,velvetleaf; [18],1
same,"Plant response rating, Blackgrass",blackgrass [1]; [13],10
same,"Plant response rating, Blackgrass",blackgrass [1]; [14],20
same,"Plant response rating, Blackgrass","blackgrass [1]; Rate 250 g/ha, 0 to 100 scale",50
same,"Plant response rating, Johnsongrass",Johnson grass; [20],0
same,"Plant response rating, Johnsongrass",Johnson grass; [21],0
same,"Plant response rating, Johnsongrass",Johnson grass; [15],0
same,"Plant response rating, Johnsongrass",Johnson grass; Rate 250 g/ha,0
same,"Plant response rating, Johnsongrass",Johnson grass; Rate 500 g/ha,50
same,"Plant response rating, Purple nutsedge",purple nutsedge; [20],0
same,"Plant response rating, Purple nutsedge",purple nutsedge; [21],0
same,Purple nutsedge plant response rating,purple nutsedge; [15],0
same,"Plant response rating, Purple nutsedge",purple nutsedge; Rate 250 g/ha,0
same,"Plant response rating, Purple nutsedge",purple nutsedge; Rate 500 g/ha,40
same,Soybean plant response rating,soybean; [5],4
same,Soybean plant response rating,soybean; [6],0
same,"Plant response rating, Soybean",soybean; [22],0
same,"Plant response rating, Soybean",soybean; [19],0
same,Soybean plant response rating,soybean; [9],4
same,Soybean plant response rating,soybean; [10],4
same,"Plant response rating, Soybean",soybean; [11],4
same,Soybean plant response rating,soybean; [18],7
same,Blackgrass plant response rating,blackgrass [2]; [5],4
same,Blackgrass plant response rating,blackgrass [2]; [23],5
same,Blackgrass plant response rating,blackgrass [2]; [6],0
same,"Plant response rating, Blackgrass",blackgrass [2]; [22],0
same,"Plant response rating, Blackgrass",blackgrass [2]; [19],2
same,Blackgrass plant response rating,blackgrass [2]; [9],5
same,Blackgrass plant response rating,blackgrass [2]; [10],0
same,Blackgrass plant response rating,blackgrass [2]; [18],7
same,"Plant response rating, Wheat (winter)","winter wheat [3]; Rate 62 g/ha, 0 to 100 scale",0
same,"Plant response rating, Wheat (winter)","winter wheat [3]; Rate 125 g/ha, 0 to 100 scale",0
same,"Plant response rating, Wheat (winter)","winter wheat [3]; Rate 250 g/ha, 0 to 100 scale (0 no effect, 100 complete control)",10
same,Bedstraw plant response rating,"bedstraw; Postemergence, Rate 62 g/ha, scale 0 to 10, 0 is no effect, 10 is complete control",0
same,Bedstraw plant response rating,bedstraw; [23],7
same,Bedstraw plant response rating,bedstraw; [6],0
same,"Plant response rating, Bedstraw",bedstraw; [22],0
same,"Plant response rating, Bedstraw",bedstraw; [19],0
same,Bedstraw plant response rating,bedstraw; [9],0
same,Bedstraw plant response rating,"bedstraw; Rate 125 g/ha, Postemergence, scale 0 to 10, 0 no effect, 10 complete control",0
same,"Plant response rating, Green foxtail",green foxtail; [13],10
same,"Plant response rating, Green foxtail",green foxtail; [14],20
same,"Plant response rating, Green foxtail","green foxtail; Rate 250 g/ha, 0 to 100 scale",50
same,"Plant response rating, Wild oat",wild oat; [13],0
same,"Plant response rating, Wild oat",wild oat; [14],0
same,"Plant response rating, Alexandergrass",Alexandergrass; [20],0
same,"Plant response rating, Alexandergrass",Alexandergrass; [21],0
same,"Plant response rating, Alexandergrass",Alexandergrass; [15],0
same,"Plant response rating, Alexandergrass",Alexandergrass; Rate 250 g/ha,80
same,"Plant response rating, Alexandergrass",Alexandergrass; Rate 500 g/ha,100
same,"Plant response rating, Barley (winter)",winter barley; [13],0
same,"Plant response rating, Barley (winter)",winter barley; [14],10
same,"Plant response rating, Barley (winter)","winter barley; Rate 250 g/ha, 0 to 100 scale",10
same,"Plant response rating, Wheat (winter)",winter wheat [4]; [13],0
same,"Plant response rating, Wheat (winter)",winter wheat [4]; [14],0
same,"Plant response rating, Wheat (winter)","winter wheat [4]; Rate 250 g/ha, 0 to 100 scale",0
same,"Plant response rating, I. Ryegrass",Italian ryegrass; [13],0
same,"Plant response rating, I. Ryegrass",Italian ryegrass; [14],0
same,"Plant response rating, I. Ryegrass","Italian ryegrass; Rate 250 g/ha, 0 to 100 scale",20
